Test results as given in patent publication US20120016014A1, “BENZOTHIOPHENE CARBOXAMIDE COMPOUNDS, COMPOSITION AND APPLICATIONS THEREOF” (INDIAN INSTITUTE OF SCIENCE, priority 2010, published 2012).
“And” between values parts separate entries of the source, which are not always exact repeats. Identical values can stand only once. Like-named read-outs stand apart in the source and are kept apart here. Blank lines part the entries; values can stand above or below the compound they belong to.

Assays:
[1] = system: blood-stage P. berghei ANKA; assay: Experimental cerebral malaria in C57BL/6 mice; type: in vivo; conditions: for Relative efficacy in the route of administration study: 5 mg/kg body weight, 6 days treatment; for Mean Survival Days (Observed for 25 days): 5 mg/kg body weight daily for six days, C57BL/6 mice
Method: C57BL/6 mice were infected with blood-stage P. berghei ANKA as discussed in the experimental section. After 24 hours of infection mice were treated intravenously with various doses of inhibitors. It was observed that all control mice developed hypothermia by day 2, ataxia and convulsions by day 3 and died by day 6, whereas inhibitor treated groups had considerably higher longevity (11-24 days). Though each group of mice developed hypothermia by day 4, convulsions and ataxia development were delayed in case of treated mice. […] The mice treated with 2.5 mg/kg body weight survived for 18 days. Even at or below 1 mg/kg body weight of inhibitor dose, the mice survived for 11 days, but paralysis and ataxia development occurred on Day 7.
[…]. The mice were treated for 6 days. […]. Chloroquine was used as the control drug. […].
Therefore, compounds 10 and 11 were also administered at 5 mg/Kg body weight. The compounds were administered through intraperitoneal, peroral, subcutaneous and intravenous routes. Compound 10 and 11 were administered once daily for 6 days. […]. The mean survival days for this treatment group was 16 (FIG. 12c and Table III). […]. Chloroquine was used as the control drug.

[2] = system: Plasmodium falciparum 3D7; assay: In vitro inhibition of P. falciparum 3D7 blood-stage parasites; type: cell-based; conditions: for IC50: read-out: P. falciparum (IC50 μM); for Stage of parasite growth arrest / Parasites observed to be dead: 2.5 μM; for Stage of parasite growth arrest: added at ring stage, P. falciparum 3D7; for Parasites observed to be dead: synchronised ring stage culture of P. falciparum 3D7
Method: Benzothiophene carboxamide derivatives of the present invention were checked for their anti-parasitic activity against 3D7 (chloroquine sensitive strain) in an in vitro culture. […] To find out parasite stage where these compounds act, synchronised ring stage culture of P. falciparum was treated with 2.5 μM concentration of compounds 6 and 7. […] When compounds 6 and 7 were added at the trophozoite stage the cells could not proceed to the schizont stage indicating the growth inhibition occurs at trophozoite stage.
Synchronised culture of P. falciparum 3D7 was treated with 2.5 μM compound 10 and 11 at the ring stage.

[3] = target: T1, purified PfENR (Plasmodium falciparum, UniProt Q9BH77); assay: PfENR inhibition, standard enzyme assay; type: biochemical
T1 sequence (Q9BH77 22-432): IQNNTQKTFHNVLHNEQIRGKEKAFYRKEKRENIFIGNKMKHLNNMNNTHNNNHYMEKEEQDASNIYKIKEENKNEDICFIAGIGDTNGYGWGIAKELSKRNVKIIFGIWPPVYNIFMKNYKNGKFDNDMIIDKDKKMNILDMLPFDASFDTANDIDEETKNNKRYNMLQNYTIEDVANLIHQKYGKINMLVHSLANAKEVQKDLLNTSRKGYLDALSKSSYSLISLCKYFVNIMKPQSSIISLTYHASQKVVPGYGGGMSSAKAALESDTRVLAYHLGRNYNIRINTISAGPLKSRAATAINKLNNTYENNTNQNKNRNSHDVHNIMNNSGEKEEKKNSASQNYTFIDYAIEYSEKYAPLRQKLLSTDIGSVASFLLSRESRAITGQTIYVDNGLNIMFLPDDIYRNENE
Method: (§1) PfENR activity was determined using standard assay described earlier.

[4] = Mechanical hyperalgesia, Randall-Selitto, carrageenan induced; type: in vivo, rats; conditions: 15 mg/kg b wt., after 1 hrs, basal level in 5 hrs
Method: Mechanical hyperalgesia was measured as hind limb withdrawal threshold in response to a mechanical stimulus applied to hind paws of rat using Randall-selitto meter, Randall and Selitto, 1957. To determine the mechanical hyperalgesia, the force was applied with increased pressure at a constant rate until the animal withdrew its limb. The base line nociceptive threshold was measured before induction of hyperalgesia. Moreover, hyperalgesia was induced by carrageenan and then groups of animal were treated with compound 4, compound 6 and compound 8 (15 mg/kg body weight) and Ibuprofen (50 mg/kg body weight). Control group was treated with physiological saline. […] The anti-nociceptive efficacy of the compounds has been evaluated the efficacy with paw withdrawal threshold latency of animals.

[5] = Hot plate latency test (thermal hyperalgesia); type: in vivo, rats; conditions: for Analgesic activity compared with Ibuprofen, hot plate: compounds 15 mg/kg b. wt. vs Ibuprofen 50 mg/kg b. wt.; for MPE index, hot plate latency assay: 15 mg/kg b. wt. i.p., 30 and 60 min; for Anti-nociceptive response, hot plate latency assay: known NSAIDs
Method: The animals were housed in an animal house facility of National Institute of Immunology, India, with controlled temperature (22±2° C.) under a 12/12 h light/dark cycle. They had free access to food and water ad libitum. All experiments were conducted according to the guidelines of the international association for the study of pain and approved by the institutional ethical committee for animal research. All in vivo experiments were carried out on inbred male […] rats ( 200-320 g body weight). Same age and equal body weight of animals were used according to experiments. No animals were used for more than one experiment. Most popular non-steroidal anti-inflammatory drugs which are widely use for treatment of chronic and inflammatory pain, such as Ibuprofen, Naproxen, Ketoprofen, Aspirin, Nimesulide, Indomethacine were purchased from Cayman Chemicals, USA and used to evaluate the efficacy of drugs in animal model. These drugs and different derivatives of Benzothiophene were dissolved in minimum volume of Dimethyl sulfoxide (DMSO) and further diluted in Phosphate buffer saline prior to use. […] Withdrawal latency for tail flicking was measured. […] NSAIDs is commonly evaluated by hot plate latency assay whereby animals are exposed to thermal stimulus (54 degree […] time for hind paw licking is measured as behavioural response for pain.

[6] = Tail flick latency test; conditions: 15 mg/kg b. wt. vs Ibuprofen 50 mg/kg b. wt., 30 min and 60 min post injection
Method: Hot plate latency test was performed under red light on the metal surface of hot plate analgesia meter (IITC, Life science, CA). Animals were placed individually on the surface of hot plate maintained at a constant temperature 54±1° C. The anti-nociceptive response was latency recorded from the time when animal was placed on the heated surface until the behavior response show licking of hind paw to avoid thermal nociception. A maximum hot plate latency of 30 sec was used for each animal to prevent paw tissue damage. Base line nociceptive latency was obtained for each animal prior to any drug administration. Thereafter, groups of animals were treated with different concentration of different derivatives of benzothiophene and well known NSAIDs. […] Subsequent nociceptive response latency for each animal was determined at 30 and 60 min after drug administration. […] In continuation of tail flick latency assay, the anti-nociceptive effect of the compounds was monitored. Rats treated as described above were subjected to determination of thermal nociceptive pain. Rats were confined in restrainer and allowed to accommodate. The tail withdrawal test consisted of immersing the posterior 8-10 cm of the tail in hot water bath maintained at 54±1° C. Withdrawal latency for tail flicking was measured. A maximum tail flick latency of 20 sec was permitted to minimize tissue damage.

[7] = target: T1, purified PfENR; assay: PfENR inhibition kinetics, cofactor potency and progress curve analysis; type: biochemical
Method: as §1
The accumulation of product further decreased when compound 6 was preincubated with the enzyme (curve c). On addition of NAD+ to this reaction the rate of product accumulation further decreased (curve d).
Progress curves for inhibition by varying concentrations of compounds 6 and 7 were examined in detail (FIGS. 16a and 16b). From the progress curve analyses, it was inferred that for each concentration of the inhibitors the initial and the steady state velocity decreased exponentially with time. At higher inhibitor concentration, steady state is reached rapidly with a decrease in steady state velocity (vs). […] Progress curves were analysed using equation 3a from which a series of Kobs values were obtained for each concentration of inhibitor.

[8] = system: liver stage of Plasmodium; conditions: Singh A. P. et al, IUBMB life 61, 923-928; read-out: IC50, inhibition of liver stage parasite development before invasion; cited from earlier work
[9] = Erythrocyte, growth inhibition, red blood cell stages of Plasmodium falciparum 3D7 (chloroquine sensitive)
[10] = read-out: Inhibition of PfENR (IC50 μM)
[11] = Plasmodium falciparum, 3D7, Erythrocyte

Structure (SMILES): CCN(CC)CCCC(C)Nc1ccnc2cc(Cl)ccc12 (centres unmarked) [Chloroquine, reference compound]
Relative efficacy in the route of administration study [1]: more effective via intravenous and subcutaneous routes compared to oral administration
Mean Survival Days (Observed for 25 days) ([1]; Intraperitoneal): 20 ± 1.5 days
Mean Survival Days (Observed for 25 days) ([1]; Intravenous): 25 ± 2.1 days
Mean Survival Days (Observed for 25 days) ([1]; Per oral): 17 ± 1.4 days
Mean Survival Days (Observed for 25 days) ([1]; Subcutaneous): 21 ± 1.7 days

IC50 [2, 9]: 2.1 ± 0.4 µM
IC50 [3, 10]: 1.68 ± 0.045 µM
Structure (SMILES): O=C(O)c1sc2ccccc2c1Br [Compound 1]

melting point: 115 to 117 °C
IC50 [2, 9]: 2 ± 0.5 µM
IC50 [3, 10]: 0.51 µM and 0.501 µM
Structure (SMILES): O=C(NCc1ccccc1)c1sc2ccccc2c1Br [Compound 4, N-benzyl-3-bromobenzo[b]thiophene-2-carboxamide]
Mechanical hyperalgesia, paw withdrawal threshold [4]: significantly reversed the mechanical hyperalgesia
Analgesic activity compared with Ibuprofen, hot plate [5]: potent analgesic activity at much lower concentration than Ibuprofen
Anti-nociceptive response, tail flick latency assay [6]: better anti-nociceptive response than the Ibuprofen

IC50 [2, 9]: 5.93 ± 0.3 µM
IC50 [3, 10]: 31.99 ± 0.23 µM
Structure (SMILES): COc1ccc(CNC(=O)c2sc3ccccc3c2Br)cc1 [Compound 5, N-(4-methoxybezyl)-3-bromobenzo[b]thiophene-2-carboxamide]

Structure (SMILES): O=C(NCc1ccc(C(F)(F)F)cc1)c1sc2ccccc2c1Br [Compound 7, N-(4-trifluorobenzyl)-3-bromobenzo[b]thiophene-2-carboxamide]
Relative efficacy in the route of administration study [1]: comparative activity to compound 6
Mean Survival Days (Observed for 25 days) ([1]; Intraperitoneal): 21 ± 1.3 days
Mean Survival Days (Observed for 25 days) ([1]; Intravenous): 24 ± 2.1 days
Mean Survival Days (Observed for 25 days) ([1]; Per oral): 11 ± 0.9 days
Mean Survival Days (Observed for 25 days) ([1]; Subcutaneous): 15 ± 1.2 days
Ki [7]: 0.0861 µM
Binding behaviour from progress curves ([7]; inhibitor 0-750 nM): slow tight binding behaviour
Isomerization rate constant (k5 * 10^−2) (s^−1) ([7]; purified PfENR, progress curves): 1.65 ± .023 10^−2 s^−1
koff ([7]; read-out: Dissociation rate constant (k6* 10^−3) (s^−1)): 0.0069 ± 3e-07 s⁻¹
Stage of parasite growth arrest [2]: arrested at the trophozoite stage
Parasites observed to be dead [2]: ~90%
IC50 [2, 11]: 1.18 ± 0.2 µM
IC50 ([3]; Inhibition of PfENR (IC50 μM)): 0.463 ± 0.1 µM
Anti-nociceptive response, tail flick latency assay [6]: better anti-nociceptive response than the Ibuprofen

IC50 [2, 9]: 2.46 ± 0.7 µM
IC50 [3, 10]: 54.98 ± 0.42 µM
Structure (SMILES): O=C(NCCc1ccccc1)c1sc2ccccc2c1Br [Compound 8, 3-bromo-N-(2-phenylethyl)-benzo[b]thiophene-2-carboxamide]
Mechanical hyperalgesia, paw withdrawal threshold [4]: significantly reversed the mechanical hyperalgesia
Analgesic activity compared with Ibuprofen, hot plate [5]: potent analgesic activity at much lower concentration than Ibuprofen
Anti-nociceptive response, tail flick latency assay [6]: better anti-nociceptive response than the Ibuprofen

IC50 [2, 9]: 2.45 ± 0.9 µM
IC50 [3, 10]: 52.56 ± 0.33 µM
Structure (SMILES): O=C(NCc1cccc2ccccc12)c1sc2ccccc2c1Br [Compound 9, 3-bromo-N-(naphthalen-1-ylmethyl)-benzo[b]thiophene-2-carboxamide]
Anti-nociceptive response, tail flick latency assay [6]: better anti-nociceptive response than the Ibuprofen

Structure (SMILES): C=CCN(Cc1ccc(F)cc1)C(=O)c1sc2ccccc2c1Br [Compound 10, 3-bromo-N-(4-fluorobenzyl)-N-(prop-2-en-1-yl)-benzo[b]thiophene-2-carboxamide]
Mean Survival Days (Observed for 25 days) ([1]; Intraperitoneal): 11 ± 0.8 days
Mean Survival Days (Observed for 25 days) ([1]; Intravenous, 5 mg/kg): 15 days and 15 ± 0.7 days
Mean Survival Days (Observed for 25 days) ([1]; Per oral): 7 ± 1.2 days
Mean Survival Days (Observed for 25 days) ([1]; Subcutaneous): 12 ± 1.6 days
Stage of parasite growth arrest [2]: arrested after 48 hours at the trophozoite stage
Parasites observed to be dead [2]: 40%
IC50 [2, 9]: 2.93 ± 1.2 µM
MPE index, hot plate latency assay [5]: less latency in comparison to other derivatives
IC50 [3, 10]: 51.98 ± 0.43 µM

Structure (SMILES): C=CCN(Cc1ccc(C(F)(F)F)cc1)C(=O)c1sc2ccccc2c1Br [Compound 11, 3-bromo-N-(prop-2-en-1-yl)-N-[4-(trifluoromethyl)benzyl]-1-benzo[b]thiophene-2-carboxamide]
Mean Survival Days (Observed for 25 days) ([1]; Intraperitoneal, 5 mg/kg): 10 ± 1.2 days
Mean Survival Days (Observed for 25 days) ([1]; Intraperitoneal, listed as compound 11, 5 mg/kg): 10 days
Mean Survival Days (Observed for 25 days) ([1]; Intravenous, 5 mg/kg): 16 ± 1.5 days
Mean Survival Days (Observed for 25 days) ([1]; Intravenous, listed as compound 11, 5 mg/kg): 16 days
Mean Survival Days (Observed for 25 days) ([1]; Per oral): 7 ± .6 days
Mean Survival Days (Observed for 25 days) ([1]; Subcutaneous, 5 mg/kg): 14 ± 1.2 days
Mean Survival Days (Observed for 25 days) ([1]; Subcutaneous, listed as compound 11, 5 mg/kg): 14 days
Stage of parasite growth arrest [2]: arrested after 48 hours at the trophozoite stage
Parasites observed to be dead [2]: around 70%
IC50 [2, 9]: 1.3 ± 0.1 µM
MPE index, hot plate latency assay [5]: less latency in comparison to other derivatives
IC50 [3, 10]: 52.48 ± 0.22 µM

Structure (SMILES): CC(C)Cc1ccc(C(C)C(=O)O)cc1 (centres unmarked) [Ibuprofen, reference compound]
Anti-nociceptive response, hot plate latency assay ([5]; 50 mg/kg b. wt., 60 minutes post administration): better anti-nociceptive effect compared to other NSAIDs
Anti-nociceptive response, hot plate latency assay ([5]; 30 minutes post administration, wistar rats): better anti-nociceptive drug as compared to other NSAIDs

Structure (SMILES): Oc1cc(Cl)ccc1Oc1ccc(Cl)cc1Cl [Triclosan, reference compound]
IC50 [8]: 6.8 µM
IC50 [2, 11]: 0.8 ± 0.1 µM
